Measured values: patent US6339042B1, “Herbicidal N-cyclohexadienyl heteroaryloxyacetamides” (American Cyanamid Co., priority 1999, dated 2002)

How the values were obtained:
Settings in all cases: three weeks after treatment
Alopecurus myosuroides [1] = assay: Pre-emergence herbicidal evaluation, ALOMY; type: in vivo
Text: (§1) The treated pots are then placed on greenhouse benches, watered and cared for in accordance with conventional greenhouse procedures.

Echinochloa crus-galli [2] = assay: Pre-emergence herbicidal evaluation, ECHCG; type: in vivo
Text: as §1

Hordeum vulgare [3] = assay: Post-emergence herbicidal evaluation, HORVW
Amaranthus tuberculatus [4] = assay: Post-emergence herbicidal evaluation, AMATA; type: in vivo
Oryza sativum [5] = assay: Pre-emergence herbicidal evaluation, ORYSA; type: in vivo
Text: as §1

Amaranthus tuberculatus [6] = assay: Pre-emergence herbicidal evaluation, AMATA; type: in vivo
Text: as §1

Alopecurus myosuroides [7] = assay: Post-emergence herbicidal evaluation, ALOMY
Hordeum vulgare [8] = assay: Pre-emergence herbicidal evaluation, HORVW; type: in vivo
Text: as §1

Lolium perenne [9] = assay: Post-emergence herbicidal evaluation, LOLPE
Method: Each pot is examined three weeks after treatment and phytotoxicity is assessed according to the rating system set forth below.
These acetone solutions are diluted with water and the resulting formulations applied at dosage levels equivalent of about 0.4 to 0.1 kg per hectare of test compound per pot. After spraying the plants are placed on greenhouse benches and are cared for in the usual manner, commensurate with conventional greenhouse practices.

Triticum aestivum [10] = assay: Post-emergence herbicidal evaluation, TRZAW
Oryza sativum [11] = assay: Post-emergence herbicidal evaluation, ORYSA
Galium aparine = assay: Post-emergence herbicidal evaluation, GALAP
Apera spica venti [12] = assay: Post-emergence herbicidal evaluation, APESV
Setaria viridis [13] = assay: Post-emergence herbicidal evaluation, SETVI
Echinochloa crus-galli [14] = assay: Post-emergence herbicidal evaluation, ECHCG
Glycine max [15] = assay: Pre-emergence herbicidal evaluation, GLXMA; type: in vivo
Text: as §1

Apera spica venti [16] = assay: Pre-emergence herbicidal evaluation, APESV; type: in vivo
Text: as §1

Lolium perenne [17] = assay: Pre-emergence herbicidal evaluation, LOLPE; type: in vivo
Text: as §1

Zea mays [18] = assay: Pre-emergence herbicidal evaluation, ZEAMX; type: in vivo
Text: as §1

Setaria viridis [19] = assay: Pre-emergence herbicidal evaluation, SETVI; type: in vivo
Text: as §1

Glycine max [20] = assay: Post-emergence herbicidal evaluation, GLXMA
Zea mays [21] = assay: Post-emergence herbicidal evaluation, ZEAMX
Triticum aestivum [22] = assay: Pre-emergence herbicidal evaluation, TRZAW; type: in vivo
Text: as §1

CC1=CC(N(C)C(=O)COc2nnc(C(F)(F)C(F)(F)F)s2)=CC(C)(C)C1 [Example 7]
0 (0 - No effect): phytotoxicity rating ALOMY (Alopecurus myosuroides [1]; 0.100 kg/ha) | phytotoxicity rating ECHCG (Echinochloa crus-galli [2]; 0.100 kg/ha) | phytotoxicity rating ECHCG (Echinochloa crus-galli [2]; 0.200 kg/ha) | phytotoxicity rating HORVW (Hordeum vulgare [3]; 0.100 kg/ha) | phytotoxicity rating HORVW (Hordeum vulgare [3]; 0.200 kg/ha) | phytotoxicity rating HORVW (Hordeum vulgare [3]; 0.400 kg/ha) | phytotoxicity rating ORYSA (Oryza sativum [5]; 0.100 kg/ha) | phytotoxicity rating ORYSA (Oryza sativum [5]; 0.200 kg/ha) | phytotoxicity rating ORYSA (Oryza sativum [5]; 0.400 kg/ha) | phytotoxicity rating AMATA (Amaranthus tuberculatus [6]; 0.100 kg/ha) | phytotoxicity rating AMATA (Amaranthus tuberculatus [6]; 0.200 kg/ha) | phytotoxicity rating ALOMY (Alopecurus myosuroides [7]; 0.100 kg/ha) | phytotoxicity rating ALOMY (Alopecurus myosuroides [7]; 0.200 kg/ha) | phytotoxicity rating HORVW (Hordeum vulgare [8]; 0.100 kg/ha) | phytotoxicity rating HORVW (Hordeum vulgare [8]; 0.200 kg/ha) | phytotoxicity rating LOLPE (Lolium perenne [9]; 0.100 kg/ha) | phytotoxicity rating TRZAW (Triticum aestivum [10]; 0.100 kg/ha) | phytotoxicity rating TRZAW (Triticum aestivum [10]; 0.200 kg/ha) | phytotoxicity rating TRZAW (Triticum aestivum [10]; 0.400 kg/ha) | phytotoxicity rating ORYSA (Oryza sativum [11]; 0.100 kg/ha) | phytotoxicity rating ORYSA (Oryza sativum [11]; 0.200 kg/ha) | phytotoxicity rating GALAP (Galium aparine; 0.100 kg/ha) | phytotoxicity rating APESV (Apera spica venti [12]; 0.100 kg/ha) | phytotoxicity rating APESV (Apera spica venti [12]; 0.200 kg/ha) | phytotoxicity rating SETVI (Setaria viridis [13]; 0.100 kg/ha) | phytotoxicity rating SETVI (Setaria viridis [13]; 0.200 kg/ha) | phytotoxicity rating SETVI (Setaria viridis [13]; 0.400 kg/ha) | phytotoxicity rating ECHCG (Echinochloa crus-galli [14]; 0.100 kg/ha) | phytotoxicity rating ECHCG (Echinochloa crus-galli [14]; 0.200 kg/ha) | phytotoxicity rating ECHCG (Echinochloa crus-galli [14]; 0.400 kg/ha) | phytotoxicity rating GLXMA (Glycine max [15]; 0.100 kg/ha) | phytotoxicity rating GLXMA (Glycine max [15]; 0.200 kg/ha) | phytotoxicity rating GLXMA (Glycine max [15]; 0.400 kg/ha) | phytotoxicity rating GLXMA (Glycine max [15]; 0.800 kg/ha) | phytotoxicity rating APESV (Apera spica venti [16]; 0.200 kg/ha) | phytotoxicity rating APESV (Apera spica venti [16]; 0.400 kg/ha) | phytotoxicity rating LOLPE (Lolium perenne [17]; 0.100 kg/ha) | phytotoxicity rating LOLPE (Lolium perenne [17]; 0.200 kg/ha) | phytotoxicity rating ZEAMX (Zea mays [18]; 0.100 kg/ha) | phytotoxicity rating ZEAMX (Zea mays [18]; 0.200 kg/ha) | phytotoxicity rating ZEAMX (Zea mays [18]; 0.400 kg/ha) | phytotoxicity rating SETVI (Setaria viridis [19]; 0.100 kg/ha) | phytotoxicity rating SETVI (Setaria viridis [19]; 0.200 kg/ha) | phytotoxicity rating SETVI (Setaria viridis [19]; 0.400 kg/ha) | phytotoxicity rating ZEAMX (Zea mays [21]; 0.100 kg/ha) | phytotoxicity rating ZEAMX (Zea mays [21]; 0.200 kg/ha) | phytotoxicity rating ZEAMX (Zea mays [21]; 0.400 kg/ha) | phytotoxicity rating TRZAW (Triticum aestivum [22]; 0.100 kg/ha) | phytotoxicity rating TRZAW (Triticum aestivum [22]; 0.200 kg/ha) | phytotoxicity rating TRZAW (Triticum aestivum [22]; 0.400 kg/ha) | phytotoxicity rating TRZAW (Triticum aestivum [22]; 0.800 kg/ha)
4 (4 - Injury): phytotoxicity rating ALOMY (Alopecurus myosuroides [7]; 0.400 kg/ha)
7 (7 - Good herbicidal effect): phytotoxicity rating APESV (Apera spica venti [16]; 0.800 kg/ha)
5 (5 - Definite injury): phytotoxicity rating ALOMY (Alopecurus myosuroides [1]; 0.400 kg/ha) | phytotoxicity rating ALOMY (Alopecurus myosuroides [1]; 0.800 kg/ha) | phytotoxicity rating AMATA (Amaranthus tuberculatus [4]; 0.400 kg/ha) | phytotoxicity rating GALAP (Galium aparine; 0.400 kg/ha) | phytotoxicity rating GLXMA (Glycine max [20]; 0.400 kg/ha)
9 (9 - Complete kill): phytotoxicity rating ECHCG (Echinochloa crus-galli [2]; 0.800 kg/ha) | phytotoxicity rating LOLPE (Lolium perenne [17]; 0.800 kg/ha)
3 (3 - Moderate effect): phytotoxicity rating AMATA (Amaranthus tuberculatus [4]; 0.100 kg/ha) | phytotoxicity rating AMATA (Amaranthus tuberculatus [4]; 0.200 kg/ha) | phytotoxicity rating AMATA (Amaranthus tuberculatus [6]; 0.400 kg/ha) | phytotoxicity rating AMATA (Amaranthus tuberculatus [6]; 0.800 kg/ha) | phytotoxicity rating ORYSA (Oryza sativum [11]; 0.400 kg/ha) | phytotoxicity rating GALAP (Galium aparine; 0.200 kg/ha) | phytotoxicity rating LOLPE (Lolium perenne [17]; 0.400 kg/ha)
6 (6 - Herbicidal effect): phytotoxicity rating ECHCG (Echinochloa crus-galli [2]; 0.400 kg/ha) | phytotoxicity rating LOLPE (Lolium perenne [9]; 0.200 kg/ha) | phytotoxicity rating LOLPE (Lolium perenne [9]; 0.400 kg/ha)
1 (1 - Trace effect): phytotoxicity rating HORVW (Hordeum vulgare [8]; 0.400 kg/ha) | phytotoxicity rating HORVW (Hordeum vulgare [8]; 0.800 kg/ha) | phytotoxicity rating ZEAMX (Zea mays [18]; 0.800 kg/ha)
2 (2 - Slight effect): phytotoxicity rating ALOMY (Alopecurus myosuroides [1]; 0.200 kg/ha) | phytotoxicity rating ORYSA (Oryza sativum [5]; 0.800 kg/ha) | phytotoxicity rating APESV (Apera spica venti [12]; 0.400 kg/ha) | phytotoxicity rating SETVI (Setaria viridis [19]; 0.800 kg/ha) | phytotoxicity rating GLXMA (Glycine max [20]; 0.100 kg/ha) | phytotoxicity rating GLXMA (Glycine max [20]; 0.200 kg/ha)
